Measured values as given in PubChem BioAssay AID250 (DTP/NCI, 2004).
Values joined by “and” are separate entries in the source; they are usually repeats but may differ in a detail not shown here. Equal entries are not always repeated. Inconclusive results and toxic doses are left out. Rule for the calls: active = survival T/C of 150% or more; inactive = T/C below 125% in these data.

System: BDF1 mice, L1210 leukemia sc, survival T/C
Experiment: NCI In Vivo Anticancer Drug Screen. Data for tumor model L1210 Leukemia (subcutaneous) in B6D2F1 (BDF1) mice
Conditions: endpoint: median survival time, higher = longer survival
Description: The antitumor activity of compounds was measured in mice bearing transplantable tumors. Survival or tumor size were measured and the results are expressed as the measurement made in the treated group (T) divided by the measurement made in the vehicle treated control group (C). The tumor model used in this assay is L1210 Leukemia (subcutaneous) in B6D2F1 (BDF1) mice

Measured: T/C

CC(=O)NC(CCC(=O)C=[N+]=N)C(=O)O (stereo unspecified)
active: dose: 0.78 mg/kg/injection, schedule: Q01DX Z (sc), vehicle: water 170 % of control | dose: 0.86 mg/kg/injection, schedule: Q01DX Z (sc), vehicle: water 155 % of control | dose: 1.3 mg/kg/injection, schedule: Q01DX Z (sc), vehicle: water 160 % of control | dose: 1.44 mg/kg/injection, schedule: Q01DX Z (sc), vehicle: water 150 % of control | dose: 2.16 mg/kg/injection, schedule: Q01DX Z (sc), vehicle: water 150 % of control | dose: 3.6 mg/kg/injection, schedule: Q01DX Z (sc), vehicle: water 150 % of control | dose: 6.72 mg/kg/injection, schedule: Q02DX Z (sc), vehicle: water 154 % of control | dose: 216.0 mg/kg/injection, schedule: Q## X Z (sc), vehicle: water 160 % of control
inactive: dose: 0.07 mg/kg/injection, schedule: Q#A X Z (sc), vehicle: water 100 % of control | dose: 0.11 mg/kg/injection, schedule: Q#A X Z (sc), vehicle: water 109 % of control | dose: 0.14 mg/kg/injection, schedule: Q01DX Z (sc), vehicle: water 95 % of control | dose: 0.19 mg/kg/injection, schedule: Q01DX Z (sc), vehicle: water 110 % of control | dose: 0.19 mg/kg/injection, schedule: Q#A X Z (sc), vehicle: water 109 % of control | dose: 0.24 mg/kg/injection, schedule: Q01DX Z (sc), vehicle: water 108 % of control | dose: 0.31 mg/kg/injection, schedule: Q01DX Z (sc), vehicle: water 109 % of control and 110 % of control | dose: 0.31 mg/kg/injection, schedule: Q#A X Z (sc), vehicle: water 122 % of control | dose: 0.4 mg/kg/injection, schedule: Q01DX Z (sc), vehicle: water 116 % of control | dose: 0.47 mg/kg/injection, schedule: Q01DX Z (sc), vehicle: water 120 % of control | dose: 0.52 mg/kg/injection, schedule: Q01DX Z (sc), vehicle: water 109 % of control and 113 % of control | dose: 0.52 mg/kg/injection, schedule: Q02DX Z (sc), vehicle: water 100 % of control | dose: 0.86 mg/kg/injection, schedule: Q02DX Z (sc), vehicle: water 104 % of control | dose: 0.86 mg/kg/injection, schedule: Q## X Z (sc), vehicle: water 100 % of control | dose: 1.44 mg/kg/injection, schedule: Q02DX Z (sc), vehicle: water 109 % of control | dose: 1.44 mg/kg/injection, schedule: Q## X Z (sc), vehicle: water 109 % of control | dose: 2.4 mg/kg/injection, schedule: Q## X Z (sc), vehicle: water 104 % of control | dose: 3.11 mg/kg/injection, schedule: Q01DX Z (sc), vehicle: water 116 % of control | dose: 4.0 mg/kg/injection, schedule: Q02DX Z (sc), vehicle: water 118 % of control | dose: 4.0 mg/kg/injection, schedule: Q## X Z (sc), vehicle: water 113 % of control | dose: 5.18 mg/kg/injection, schedule: Q01DX Z (sc), vehicle: water 116 % of control | dose: 6.72 mg/kg/injection, schedule: Q## X Z (sc), vehicle: water 109 % of control | dose: 8.64 mg/kg/injection, schedule: Q01DX Z (sc), vehicle: water 100 % of control | dose: 10.0 mg/kg/injection, schedule: Q01DX Z (sc), vehicle: water 120 % of control | dose: 10.0 mg/kg/injection, schedule: Q## X Z (sc), vehicle: water 110 % of control | dose: 11.2 mg/kg/injection, schedule: Q## X Z (sc), vehicle: water 109 % of control | dose: 14.4 mg/kg/injection, schedule: Q01DX Z (sc), vehicle: water 104 % of control | dose: 17.0 mg/kg/injection, schedule: Q07DX Z (sc), vehicle: water 120 % of control | dose: 17.0 mg/kg/injection, schedule: Q## X Z (sc), vehicle: water 110 % of control | dose: 24.0 mg/kg/injection, schedule: Q01DX Z (sc), vehicle: water 100 % of control | dose: 28.0 mg/kg/injection, schedule: Q07DX Z (sc), vehicle: water 120 % of control | dose: 28.0 mg/kg/injection, schedule: Q## X Z (sc), vehicle: water 115 % of control | dose: 40.0 mg/kg/injection, schedule: Q01DX Z (sc), vehicle: water 100 % of control | dose: 47.0 mg/kg/injection, schedule: Q01DX001 (sc), vehicle: water 115 % of control | dose: 47.0 mg/kg/injection, schedule: Q07DX Z (sc), vehicle: water 110 % of control | dose: 47.0 mg/kg/injection, schedule: Q## X Z (sc), vehicle: water 110 % of control and 120 % of control | dose: 78.0 mg/kg/injection, schedule: Q01DX001 (sc), vehicle: water 120 % of control | dose: 78.0 mg/kg/injection, schedule: Q07DX Z (sc), vehicle: water 120 % of control | dose: 78.0 mg/kg/injection, schedule: Q## X Z (sc), vehicle: water 110 % of control and 120 % of control | dose: 130.0 mg/kg/injection, schedule: Q01DX001 (sc), vehicle: water 120 % of control | dose: 130.0 mg/kg/injection, schedule: Q07DX Z (sc), vehicle: water 120 % of control | dose: 216.0 mg/kg/injection, schedule: Q07DX Z (sc), vehicle: water 120 % of control | dose: 360.0 mg/kg/injection, schedule: Q07DX Z (sc), vehicle: water 120 % of control

O=C1CN(CCN2CC(=O)NC(=O)C2)CC(=O)N1
inactive: dose: 12.5 mg/kg/injection, schedule: Q01DX009 (ip), vehicle: steriod suspending solution 115 % of control | dose: 12.5 mg/kg/injection, schedule: Q01DX009 (sc), vehicle: steriod suspending solution 110 % of control | dose: 25.0 mg/kg/injection, schedule: Q01DX009 (ip), vehicle: steriod suspending solution 120 % of control | dose: 25.0 mg/kg/injection, schedule: Q01DX009 (sc), vehicle: steriod suspending solution 100 % of control | dose: 39.0 mg/kg/injection, schedule: Q03HX024 (sc), vehicle: Klucel (hydroxypropylcellulose) (HPC) 120 % of control | dose: 65.0 mg/kg/injection, schedule: Q03HX024 (sc), vehicle: Klucel (hydroxypropylcellulose) (HPC) 120 % of control | dose: 100.0 mg/kg/injection, schedule: Q01DX009 (sc), vehicle: steriod suspending solution 105 % of control and 120 % of control | dose: 100.0 mg/kg/injection, schedule: Q04DX003 (ip), vehicle: steriod suspending solution 105 % of control | dose: 100.0 mg/kg/injection, schedule: Q04DX003 (sc), vehicle: steriod suspending solution 100 % of control and 110 % of control | dose: 200.0 mg/kg/injection, schedule: Q01DX009 (ip), vehicle: steriod suspending solution 100 % of control | dose: 200.0 mg/kg/injection, schedule: Q01DX009 (sc), vehicle: steriod suspending solution 90 % of control | dose: 200.0 mg/kg/injection, schedule: Q04DX003 (ip), vehicle: steriod suspending solution 100 % of control | dose: 200.0 mg/kg/injection, schedule: Q04DX003 (sc), vehicle: steriod suspending solution 105 % of control and 115 % of control | dose: 300.0 mg/kg/injection, schedule: Q01DX009 (sc), vehicle: Klucel (hydroxypropylcellulose) (HPC) 120 % of control | dose: 400.0 mg/kg/injection, schedule: Q04DX003 (sc), vehicle: steriod suspending solution 100 % of control | dose: 500.0 mg/kg/injection, schedule: Q01DX009 (sc), vehicle: Klucel (hydroxypropylcellulose) (HPC) 120 % of control | dose: 800.0 mg/kg/injection, schedule: Q04DX003 (sc), vehicle: steriod suspending solution 100 % of control and 120 % of control
active: dose: 8.4 mg/kg/injection, schedule: Q03HX024 (sc), vehicle: Klucel (hydroxypropylcellulose) (HPC) 160 % of control | dose: 23.0 mg/kg/injection, schedule: Q03HX024 (sc), vehicle: Klucel (hydroxypropylcellulose) (HPC) 165 % of control | dose: 100.0 mg/kg/injection, schedule: Q01DX009 (ip), vehicle: steriod suspending solution 165 % of control
